Like-named read-outs stand apart in the source and are kept apart here.
Assays:
Assay type in all cases: cell-based
[1] = test system: 5-HETE biosynthesized by glycogen-stimulated polymorphonuclear leucocytes (PMNs); test: Hydroxyacid Profile Assay (HPA): inhibition of 5-HETE synthesis in glycogen-elicited rabbit PMNs; details: Oryctolagus cuniculus, Leucocyte; for inhibition at 100 µM: read-out: Percent Inhibition (100 μM); for IC50: read-out: IC50 (50% inhibition of 5-HETE synthesis)
Experimental: As previously noted 5-HETE biosynthesis serves as a marker for arachidonic acid metabolism via the 5-lipoxygenase pathway which produces (poly)hydroxyeicosatetraenoic acids and the potent bronchoconstrictor and vasoactive leukotrienes LTC4, LTD4 and LTE4.
Buffer A (8.70 g NaCl; 0.27 g KCl; 0.42 g Na2 HPO4; 0.76 g KH2 PO4; and 1.00 g dextrose per liter H2 O; pH 7.0) (0.325 ml) is introduced into each of a battery of screwtop culture tubes. Then, a solution of a compound (0.100 ml) to be assayed is dispensed into individual tubes. Assays are performed in duplicate at 100 μM and 10 μM concentrations. Control tubes receive Buffer A (0 100 ml) in lieu of compound. Next, rabbit PMNs (2×10^7 cells/tube; 4×10^7cells/ml) (0.500 ml) are added to each tube. The rabbit PMN's used are elicited with glycogen and made into a preparation substantially as described by F. Hirata. et al (1979) Proc. Natl. Acad. Sci. USA, 76, 2640-2643. The tubes are vortexed and preincubated in a shaking 37° C. water bath for 15 minutes.
Thereafter, the tubes are removed from the water bath and calcium ionophore solution (400 μg/ml A-23187; Sigma Chemical Co., St. Louis, Mo.) (0.025 ml), ^14 C-arachidonic acid (0.25 μCi in 0.025 ethanol; New England Nuclear Products, Boston, Mass.) (0.025 ml) and calcium chloride solution (CaCl2.2H2 O ); 105.8 mg/10 […]) (0.025 ml) are added in that order. The tubes are vortexed and returned to the water bath for 30 minutes. The reaction is then terminated by the addition of HCl (0.8N, 0.025 ml).
Extraction and concentration of ^14 C-labeled 5-HETE is performed as follows. First, solution containing 2 parts ethyl acetate, 3 parts CH2 Cl2 and 0.01 ml unlabeled arachidonic acid is added (5.01 ml) to each tube. The tubes are capped and briefly vortexed. The contents of each tube is poured into a polypropylene column fitted with a porous polyethylene disc and Whatman phase separation filter paper. The organic phase is collected by gravity filtration into a conical centrifuge tube, While the aqueous phase is retained in the column by the phase separation paper. Each culture tube is rinsed once with the EtOAc:CH2 Cl2 solution (1.0 ml) and the wash added to the column. The organic phase is concentrated to (0.5 ml) using a Savant Speed Vac concentrator (Savant Instruments, Inc., Hicksville, N.Y.).
After concentration of the organic phase, the tubes are vortexed and stored covered on ice. An aliquot (0.01 ml) is then removed for liquid scintillation counting in a Beckman LS7500 Liquid Scintillation Counter (Beckman Instruments Corp., Fullerton, Calif.). Based on the count, the number of μl containing 1×10^5 cpm is calculated. This volume is applied to a silica gel covered glass plate in a 10 mm streak. The remaining fluid in the tube is measured via syringe and noted.
The TLC plate is placed in a chromatography chamber containing the following solvent system: CHCl3 :MeOH:HOAc:H2 O (v/v;90: 9:1:0.65). The plate is then air dried and counted on a Berthold Linear TLC Analyzer (Berthold Instruments, Inc., Pittsburgh, Pa.) for 30 minutes per lane if a dose response curve had been run, or for 5 min per lane if drug screening had been done. The integrated area of the 5-HETE band for each compound is converted to percent of control and analyzed. The percent inhibition at 100 μM compound concentration and the concentration (μM) which produces a 50% inhibition of 5-HETE synthesis (IC50), are determined for those compounds described in Examples 1-36, and are reported in Table 1 .

guinea pig ileal strips [2] = test: Modified Schultz-Dale Assay: inhibition of antigen-induced anaphylactic contraction of passively sensitized ileal strips; details: Cavia porcellus; for IC50: value in parentheses
Experimental: In the classic Schultz-Dale assay, guinea pigs are sensitized with a known immunogen or passively sensitized with guinea pig antiserum to the immunogen, strips of ilea are recovered, and the extent of their contraction in response to a challenge exposure to the same antigen is observed as a measure of anaphylactic response. The experiments described here follow this same procedure while exposing the ileal strips to test compound before exposure to antigen challenge (preincubation) and, in some strips, also after antigen challenge (postincubation).
The male Hartley strain guinea pigs (450-650 g) whose ilea are used in this Schultz-Dale assay are passively sensitized with IgE antiovalbumin antiserum as follows. The antiserum is developed in another group of similar guinea pigs as described in Graziano, et al., J. Immunol. 127:1067-1070 (1981) and pooled. The test animals are then each passively sensitized by subcutaneous injection of the pooled antiserum (1 ml).
About 2-7 days after sensitization, the guinea pigs are sacrificed and the terminal ilea are removed. They are cut into strips (6 cm) and positioned in tissue baths (5 ml) of Tyrode's solution with atropine (1 μg/ml) at 37° C. One end of each strip is fixed to an immobile post and the other movably mounted to a Grass Ft. 0.03 linear force displacement transducer and a Grass Model 7 polygraph. The tension is set (at 1 gram) and the tissue is allowed to equilibrate (10 minutes). Tissue viability is tested by establishing a consistent response to histamine (0.5 μg/ml). After several histamine-induced contractions, mepyramine (1 μg/ml) is added to inhibit any contractions due to the anaphylactic release of endogenous histamine.
A minimum of 3 animals are used for each compound tested and, of the 6 strips from each animal, 2 strips are incubated (preincubation) with a test compound (final concentration 75 μM), 2 with an appropriate reference standard (BW-755C at 75 μM) and 2 with saline solution (control) for a predetermined period (5 minutes). After this initial incubation period, ovalbumin (100 μg/ml) is added to each bath and the resulting anaphylactic contraction measured. The data are recorded as of tension produced by the tissue in excess of the 1 gram tension that was initially set. At the peak of the contraction, a dose of the same test compound (75 μM) is added (postincubation) to one control strip and reference standard (FPL-55712 at 1.9 μM). The strips are monitored (1 minute) and any effect on the established contraction is recorded as described above.
Two types of data are derived from the above protocol. First, pre-antigen inhibition (prechallenge) is expressed as the percent inhibition in each of the strips preincubated with test compound measured against the averaged contractions of the two control strips. Prechallenge inhibition by the reference standard is also determined in each experiment as a positive control. The reference used consistently gives 60-80% inhibition. Second, post-antigen inhibition (postchallenge) is determined by measuring the decrease in anaphylactic contraction of a control strip produced by adding either a test compound or standard at the peak of the contraction. The reference used consistently gives 70-90% inhibition. The data in each experiment, therefore, consists of 2 prechallenge and 1 postchallenge value for both test compound and standard.

guinea pig ileal strips [3] = test: as above; details: Cavia porcellus, **tested at 20 μg/ml
[4] = test system: 5-HETE biosynthesized by glycogen-stimulated polymorphonuclear leucocytes (PMNs); test: Hydroxyacid Profile Assay (HPA): inhibition of 5-HETE synthesis in glycogen-elicited rabbit PMNs; details: Oryctolagus cuniculus, Leucocyte, read-out: Percent Inhibition; for inhibition at 50 µM: **tested at 50 μM
[5] = added at peak of contraction after antigen, read-out: Postchallenge IC50
[6] = preincubation before ovalbumin antigen, read-out: Prechallenge IC50
[7] = added at peak of contraction after antigen, read-out: Postchallenge mean percent inhibition
[8] = preincubation before ovalbumin antigen, read-out: Prechallenge mean percent inhibition

Compound | inhibition at 100 µM ([1]; 5-HETE synthesis) [%] | inhibition at 20 µg/mL (guinea pig ileal strips [3]; [7]) [%] | inhibition at 20 µg/mL (guinea pig ileal strips [3]; [8]) [%] | inhibition at 75 µM (guinea pig ileal strips [2]; [7]) [%] | inhibition at 75 µM (guinea pig ileal strips [2]; [8]) [%] | further results
CCCCCCCc1ccc(C(=O)CCCCC(=O)O)cc1 [Example 1, 5-(4-n-Heptylbenzoyl)pentanoic acid] | 78 | 68 | 81 |  |  | IC50 [1]: 30 µM; IC50 (guinea pig ileal strips [2]; [5]): 48 µM; IC50 (guinea pig ileal strips [2]; [6]): 27 µM
CCCCCc1ccc(C(=O)CCCCC(=O)O)cc1 [Example 2, 5-(4-n-Pentylbenzoyl)pentanoic acid] | 59 | 58 | 81 |  |  | IC50 [1]: 70 µM; IC50 (guinea pig ileal strips [2]; [5]): > 75 µM; IC50 (guinea pig ileal strips [2]; [6]): 35 µM
CCCCCc1ccc(C(=O)CCCC(=O)O)cc1 [Example 3, 4-(4-n-Pentylbenzoyl)butanoic acid] | 0 | 47 | 65 |  |  | 
CCCCCc1ccc(C(=O)CCC(=O)O)cc1 [Example 4, 3-(4-n-Pentylbenzoyl)propanoic acid] | 65 | 49 | 65 |  |  | 
CCCCCCCCCc1ccc(C(=O)CCCCC(=O)O)cc1 [Example 9, 5-(4-n-Nonylbenzoyl)pentanoic acid] | 79 | 2 | 33 |  |  | 
CCCCCCCCCCc1ccc(C(=O)CCCCC(=O)O)cc1 [Example 10, 5-(4-n-Decylbenzoyl)pentanoic acid] | 88 | 11 | 7 |  |  | 
CCCCCCCCCCCCCCc1ccc(C(=O)CCCCC(=O)O)cc1 [Example 11, 5-(4-n-Tetradecylbenzoyl)pentanoic acid] | 76 | 14 | 1 |  |  | 
CCCCCCOc1ccc(C(=O)CCCCC(=O)O)cc1 [Example 12, 5-(4-n-Hexyloxybenzoyl)pentanoic acid] | 75 | 18 | 70 |  |  | 
CCCCCCCc1ccc(C(=O)c2ccc(C(=O)O)cc2)cc1 [Example 14, 4-(4-n-Heptylbenzoyl)benzoic acid] |  |  |  | 16 | 44 | inhibition at 50 µM [4]: 87%
CCCCCCCc1ccc(C(=O)CCCCCC(=O)O)cc1 [Example 20, 6-(4-n-Heptylbenzoyl)hexanoic acid] |  |  |  | 3 | 57 | inhibition at 50 µM [4]: 60%
Cc1ccc(C(=O)CCCCC(=O)O)cc1 [Example 21, 5-(4-Methylbenzoyl)pentanoic acid] |  | 11 | 29 |  |  | inhibition at 10 µM ([1]; at 10 μM, 5-HETE synthesis, read-out: Percent Inhibition): 0%
O=C(O)CCCC(=O)c1ccccc1 [Example 22, 4-Benzoylbutanoic acid, reference compound] |  | 11 | 0 |  |  | inhibition at 1000 µM ([4]; at 1000 μM): 0%
COc1ccc(C(=O)c2cccc(C(=O)O)c2)c(O)c1 [Example 27, 3-(2-Hydroxy-4-methoxybenzoyl)benzoic acid] | 31 |  |  | 14 | 58 | 
CCCCCCOc1ccc(C(=O)c2cccc(C(=O)O)c2)c(C)c1 [Example 29, 3-(4-n-Hexyloxy-2-methylbenzoyl)-benzoic acid] | 88 |  |  | 38 | 86 | 
Cc1ccc(C(=O)c2cccc(C(=O)O)c2)c(O)c1 [Example 30, 3-(2-Hydroxy-4-methylbenzoyl)benzoic acid] | 47 |  |  | 6 | 26 | 
CCCCOc1ccc(C(=O)CCCCC(=O)O)cc1 [Example 33, 5-(4-n-Butoxybenzoyl)pentanoic acid] | 49 |  |  | 29 | 63 | 
CCCCCCCc1ccc(C(=O)CCCC(=O)O)cc1 [Example 34, 4-(4-n-Heptylbenzoyl)butanoic acid] | 76 |  |  | 39 | 79 | IC50 (guinea pig ileal strips [2]; [6]): 14 µM
O=C(O)c1cccc(C(=O)c2ccc(C3CCCCC3)cc2)c1 [Example 35, 3-(4-Cyclohexylbenzoyl)benzoic acid] | 63 |  |  | 43 | 66 | IC50 (guinea pig ileal strips [2]; [5]): > 75 µM; IC50 (guinea pig ileal strips [2]; [6]): 38 µM
